The source of these data is patent US5043179A, “Triol triester derivatives as low calorie fat mimetics” (Nabisco Brands, Inc., priority 1990, dated 1991).

For data set [1] the following is noted: fed to rats; cited from earlier work.
The test system of data set [2] is nonspecific lipase. As to conditions: pancreatic lipase inhibited by taurocholate; cited from earlier work.
For data set [3], the system named is pancreatic lipase. The data set can be described thus: lipase assay as in Example 7, with super fluid chromatography to separate hydrolysis products. It is filed as in vitro ADME, porcine. Particulars: one hour incubation. As for the experimental part:
(§1) 1. Buffer: A pH 7.1 phosphate buffer is prepared by dissolving 6.8 g. KH2 PO4 in 1 L. of millipore filtered water (to yield 0.05 M phosphate). Fifty mg. Ca(NO3)2 and 5.0 g. cholic acid (Na^+ salt, an ox bile isolate from Sigma) are added to give 0.3 mM Ca++ and 0.5% cholic acid in 0.05 M phosphate. The pH is adjusted to approximately 7.1 with solid NaOH. Several drops of Baker "Resi-analyzed " toluene are added to prevent bacterial growth during storage at 3°-5° C.
(§2) 2. Lipase: About 15 mg/mL commercial porcine pancreatic lipase from U.S. Biochemical Corporation is dissolved in buffer.
(§3) 3. Substrates and Standards: A 1.0 mL volumetric flask is charged with an amount of lipid substrate (test substance or standard) calculated to give a concentration of 200 nanomoles per microliter in Baker "Resi-analyzed " toluene. (The proper concentration may be approximated by doubling the molecular weight of the lipid in question, dividing by 10, and diluting to the mark; this yields about 200 nanomoles per microliter.) This preparation affords the substrate to be used in the hydrolysis reactions.
(§4) In a 25 mL Erlenmeyer, emulsify 20 mL buffer and 40 microliters of substrate using an ultrasonic disrupter at a microtip maximum setting for approximately 10 seconds. […] Place in a 37° C. water bath and stir vigorously. After temperature equilibration, add 40 microliters of enzyme solution and start timing. […]

A short description of data set [4]: caloric availability by in vivo animal feeding study (body weight gain). Set-up: species or system Sprague-Dawley rats. As to conditions: rats, diet of 50% fort and 21% test compound, 14 days. The text has this:
This example illustrates how the triol triesters of this invention are screened for caloric availability by a carefully controlled in vivo animal feeding study.
An experimental relationship between total calories ingested and animal body weight gain is established by monitoring the body weight gain associated with consumption of a nutritionally balanced diet containing varying concentrations of a reference substance such as corn oil which has a known caloric availability. Correlations between total calories ingested and body weight gain are excellent (r=0.99).
Caloric availability of an unknown substance is evaluated by substituting a specific weight of the unknown substance for the reference substance and observing the body weight gain. The gain in body weight is equated to a total number of calories using the correlation previously established for the reference data. The estimated number of calories ingested are divided by the weight of unknown substance to give the apparent calories per gram for the unknown substance. Generally speaking, in these bioavailability studies, the degree of perianal pelt soiling correlates with reduced bioavailability.
The test animals are six-week-old male Sprague-Dawley rats obtained from the Portage, Michigan facility of the Charles River Laboratories, Inc. After acclimation for 15 days, the test duration is 14 days. […]

Data set [5] in a line: in vitro digestibility screen using pancreatic lipase (TLC analysis). Type of data set: in vitro ADME, porcine. As to conditions: pig, two-hour incubation, 37° C., pH 7.1, TLC, read-out: hydrolyzed by pancreatic lipase. On the procedure:
This example outlines the procedure for screening the in vitro digestibility of the triester derivatives of this invention using pancreatic lipase.
as §1, §2
3. Substrates and Standards: A 1.0 mL volumetric flask is charged with an amount of lipid substrate (test substance or standard) calculated to give a concentration of 200 nanomoles per microliter in Baker "Resi-analyzed " toluene. (The proper concentration may be approximated by doubling the molecular weight of the lipid in question, dividing by 10, and diluting to the mark; this yields about 200 nanomoles per microliter.) This preparation affords the substrate to be used in the hydrolysis reactions. […]

A short description of data set [6]: lipase assay as in Example 7, with super fluid chromatography to separate hydrolysis products. It is filed as in vitro ADME, porcine. As to conditions: pig, pancreatic lipase, pH 7.1, one hour incubation, read-out: hydrolyzed by pancreatic lipase. On the procedure: as §1, §2, §3, §4
The conditions of data set [7]: cited from earlier work.

On to `CCCCCCCC/C=C\CCCCCCCC(=O)OCC(COC(=O)CCCCCCC/C=C\CCCCCCCC)(COC(=O)CCCCCCC/C=C\CCCCCCCC)COC(=O)CCCCCCC/C=C\CCCCCCCC` [pentaerythritol tetraoleate], for which, in data set [1], the “absorption in fat balance study” value is listed as “absorbability decreased”.

Regarding `CCCCCCCC/C=C\CCCCCCCC(=O)OC` [methyl oleate], in data set [2], the “hydrolysis by nonspecific lipase” value was “hydrolyze”. The “absorption in fat balance study” value in data set [1] is listed as “absorbed”.

`CCCCCCCCCCCCCC(=O)OCC(COC(=O)CCCCCCCCCCCCC)OC(=O)CCCCCCCCCCCCC` [trimyristin]: the “hydrolysis by pancreatic lipase (in words)” value in data set [3] is listed as “almost fully hydrolyzed”.

With `CCCCCCCC/C=C\CCCCCCCC(=O)OCCC(COC(=O)CCCCCCC/C=C\CCCCCCCC)OC(=O)CCCCCCC/C=C\CCCCCCCC` (stereo not shown) [Example 4, 1,2,4-Butane trioleate], the “caloric availability (kcal/gram yielded upon being metabolized)” value in data set [4] is on record as “about 7.7 kcal/gram”. Also, the metabolised at 2 h in data set [5] was around 50%.

For `CCCCCCCC/C=C\CCCCCCCC(=O)OC[C@H](OC(=O)CCCCCCC/C=C\CCCCCCCC)[C@@H](OC(=O)CCCCCCC/C=C\CCCCCCCC)[C@@H](COC(=O)CCCCCCC/C=C\CCCCCCCC)OC(=O)CCCCCCC/C=C\CCCCCCCC` [xylitol pentaoleate], the “absorption in fat balance study” value in data set [1] is on record as “absorbability decreased”.

With `CCCCCCCCCCCCCC(=O)OCCCCC(COC(=O)CCCCCCCCCCCCC)OC(=O)CCCCCCCCCCCCC` (stereo not shown) [Example 5, 1,2,6-hexane trimyristate], the metabolised at 1 h in data set [6] was around 20%.

On to `CCCCCCCC/C=C\CCCCCCCC(=O)OCCOC(=O)CCCCCCC/C=C\CCCCCCCC` [ethylene glycol dioleate], for which the “hydrolysis by nonspecific lipase” value in data set [2] is “hydrolyze”. Moreover, in data set [1], the “absorption in fat balance study” value is reported as “absorbed”.

Take `CCCCCCCC/C=C\CCCCCCCC(=O)OC[C@H]1O[C@@](COC(=O)CCCCCCC/C=C\CCCCCCCC)(O[C@H]2O[C@H](COC(=O)CCCCCCC/C=C\CCCCCCCC)[C@@H](OC(=O)CCCCCCC/C=C\CCCCCCCC)[C@H](OC(=O)CCCCCCC/C=C\CCCCCCCC)[C@H]2OC(=O)CCCCCCC/C=C\CCCCCCCC)[C@@H](OC(=O)CCCCCCC/C=C\CCCCCCCC)[C@@H]1OC(=O)CCCCCCC/C=C\CCCCCCCC` [sucrose octaoleate]: in data set [1], the “absorption in fat balance study” value was “not absorbed”.

For the compound `CCCCCCCC/C=C\CCCCCCCC(=O)OC[C@H](OC(=O)CCCCCCC/C=C\CCCCCCCC)[C@@H](OC(=O)CCCCCCC/C=C\CCCCCCCC)[C@H](OC(=O)CCCCCCC/C=C\CCCCCCCC)[C@@H](COC(=O)CCCCCCC/C=C\CCCCCCCC)OC(=O)CCCCCCC/C=C\CCCCCCCC` [sorbitol hexaoleate], the “absorption in fat balance study” value in data set [1] was “not absorbed”.

Take `CCCCCCCC/C=C\CCCCCCCC(=O)OC[C@H](OC(=O)CCCCCCC/C=C\CCCCCCCC)[C@@H](COC(=O)CCCCCCC/C=C\CCCCCCCC)OC(=O)CCCCCCC/C=C\CCCCCCCC` [erythritol tetraoleate]: the “hydrolysis in vivo (free tagged erythritol in urine)” value in data set [7] (rats) is recorded as “hydrolyzed in vivo”. Besides, the “rate of appearance of fatty acids in the lymph” value in data set [7] (thoracic duct cannulated rats) is on record as “slower rate than glycerol trioleate”. Further, the “hydrolysis by nonspecific lipase” value in data set [2] was “stepwise hydrolysis”. For the same compound, the “absorption in fat balance study” value in data set [1] is reported as “absorbability decreased”.

As to `CCCCCCCC/C=C\CCCCCCCC(=O)OCC(COC(=O)CCCCCCC/C=C\CCCCCCCC)OC(=O)CCCCCCC/C=C\CCCCCCCC` [triolein], the “hydrolysis by nonspecific lipase” value in data set [2] is recorded as “hydrolyze”. Moreover, in data set [5], the metabolised at 2 h was around 90%. Besides, the “absorption in fat balance study” value in data set [1] is recorded as “absorbed”.
